# In patent US20230280220A1, “Benzimidazole Derivative Compounds and Uses Thereof” (Pfizer Inc., priority 2019, published 2023):
# Target: ITK enzyme (ITK FL, N-Flag and C-His tagged) (Homo sapiens (Human), UniProt Q08881)
# Test: ITK enzyme assay (IL-2-inducible T-cell kinase activity)
# Type: biochemical
# Conditions: geometric mean of count n
# Experimental: IL-2-Inducible T-Cell Kinase (ITK) Activity, IC50 (nM)
# ITK activity was determined by measuring the effect of a test compound in an ITK enzyme assay.
# 1.0 M HEPES Buffer pH 7.5 solution was prepared as follows: 238.3 g HEPES free acid (Sigma) and 800 mL of water were combined, and the mixture was stirred until complete dissolution. The pH was adjusted to 7.5 via titration with 5N NaOH and the volume adjusted to 1000 mL. The solution was filtered and sterilized.
# ITK assay buffer was prepared as follows: 50 mL of HPLC-grade water was treated with 2 mL of 1.0 M HEPES Buffer, 500 μL of 2% Gelatin (Sigma), 1.0 mL of aqueous MgCl2 solution (1.0 M), and 1.0 mL of aqueous glutathione solution (0.5 M), and the solution was mixed. The solution was brought to 99 mL in a graduated cylinder by addition of water and sterilized through a 0.2 μm filter. 0.1 mL of Brij-35™ Surfact-Amps™ Detergent Solution (10% w/v aqueous solution, ThermoFisher) and 1.0 mL of ATP (Teknova, 100 mM) were added and the solution was mixed.
# The resulting solution was stored on ice. 30 Minutes prior to use, the enzyme solution was removed from ice and equilibrated to RT by incubation in a RT water bath.
# Preparation of 4×ITK substrate solution was as follows: 50 mL of ITK assay buffer was treated with 100 μL of BTK peptide (China Peptide Company, 2 mM stock solution in DMSO). The tube was capped, mixed by gently inverting the tube, and then stored on ice. 30 Minutes prior to use, the substrate solution was removed from ice and equilibrated to RT by incubation in a RT water bath.
# At the time of assay, 7.5 μL of the 1.33×ITK enzyme solution was added to plate wells containing 0.1 μL of varying concentrations of test compound in DMSO. The plate was incubated 30 min at RT. The plate wells were each treated with 2.5 uL of the 4×ITK substrate solution and the plate was sealed (TopSeal™, Perkin Elmer). The plate was spun at 1000 rpm for 30 sec and then incubated for 60 min at RT. The seal was removed, and each well was treated with 10 μL of Stop/Detect Buffer (20 mM HEPES pH 7.5, 0.01% gelatin, 1 nM LANCE PT66 (Perkin Elmer), 16.5 μg/ml Surelight APC (Perkin Elmer), 10 mM EDTA, 250 mM NaCl). The plate was again covered and was spun at 1000 rpm for 30 seconds. The plate was allowed to incubate overnight at RT and in a closed carrier to reduce dehydration. The seal was removed, and the fluorescence was read with a plate reader with an excitation wavelength of […] and an emission wavelength of 615 nm.
# Sequence of ITK enzyme (ITK FL, N-Flag and C-His tagged) (Q08881 whole entry): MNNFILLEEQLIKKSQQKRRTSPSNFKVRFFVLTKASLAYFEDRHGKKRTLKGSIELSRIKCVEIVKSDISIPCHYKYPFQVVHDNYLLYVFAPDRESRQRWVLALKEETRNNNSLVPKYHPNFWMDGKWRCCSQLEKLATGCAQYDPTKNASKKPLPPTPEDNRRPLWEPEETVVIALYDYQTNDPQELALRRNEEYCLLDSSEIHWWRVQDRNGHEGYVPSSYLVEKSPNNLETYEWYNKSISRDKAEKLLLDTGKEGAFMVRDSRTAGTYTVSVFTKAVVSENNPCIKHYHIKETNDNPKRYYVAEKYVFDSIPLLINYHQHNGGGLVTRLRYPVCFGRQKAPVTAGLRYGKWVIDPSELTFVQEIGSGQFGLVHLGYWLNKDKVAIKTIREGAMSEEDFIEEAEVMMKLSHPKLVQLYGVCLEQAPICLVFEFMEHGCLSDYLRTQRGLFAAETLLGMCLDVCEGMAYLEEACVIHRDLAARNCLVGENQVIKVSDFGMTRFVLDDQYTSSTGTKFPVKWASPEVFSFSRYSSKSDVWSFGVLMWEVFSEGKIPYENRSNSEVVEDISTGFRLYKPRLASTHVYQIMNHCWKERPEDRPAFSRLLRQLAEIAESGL
row,IC50,Compound
1,16 nM,"Cc1cc2[nH]c(-c3n[nH]c4c3C[C@@H]3C[C@]3(C)C4)nc2cc1N(C)C(=O)CN1C[C@@H](C)O[C@H](C)C1 [Example 32, 2-((2R,6R)-2,6-Dimethylmorpholino)-N-methyl-N-(6-methyl-2-((4aS,5aR)-5a-methyl-1,4,4a,5,5a,6-hexahydrocyclopropa[f]indazol-3-yl)-1H-benzo[d]imidazol-5-yl)acetamide]"
2,11 nM,"Cc1cc2[nH]c(-c3n[nH]c4c3C[C@@H]3C[C@]3(C)C4)nc2cc1N(C)C(=O)CN1C[C@H](C)O[C@@H](C)C1 [Example 33, 2-((2S,6S)-2,6-Dimethylmorpholino)-N-methyl-N-(6-methyl-2-((4aS,5aR)-5a-methyl-1,4,4a,5,5a,6-hexahydrocyclopropa[f]indazol-3-yl)-1H-benzo[d]imidazol-5-yl)acetamide]"
3,10 nM,"Cc1cc2[nH]c(-c3n[nH]c4c3C[C@@H]3C[C@]3(C)C4)nc2cc1N(C)C(=O)CN1CCOCC1 [Example 34, N-Methyl-N-(6-methyl-2-((4aS,5aR)-5a-methyl-1,4,4a,5,5a,6-hexahydrocyclopropa[f]indazol-3-yl)-1H-benzo[d]imidazol-5-yl)-2-morpholinoacetamide]"
4,6 nM,"Cc1cc2[nH]c(-c3n[nH]c4c3C[C@@H]3C[C@]3(C)C4)nc2cc1N(C)C(=O)CC1CCOCC1 [Example 35, N-Methyl-N-(6-methyl-2-((4aS,5aR)-5a-methyl-1,4,4a,5,5a,6-hexahydrocyclopropa[f]indazol-3-yl)-1H-benzo[d]imidazol-5-yl)-2-(tetrahydro-2H-pyran-4-yl)acetamide]"
5,9 nM,"C[C@@H](C(=O)N(C)c1cc(Br)c2[nH]c(-c3n[nH]c4c3C[C@@H]3C[C@]3(C)C4)nc2c1)N1CCOCC1 [Example 37, (S)—N-(7-bromo-2-((4aS,5aR)-5a-methyl-1,4,4a,5,5a,6-hexahydrocyclopropa[f]indazol-3-yl)-1H-benzo[d]imidazol-5-yl)-N-methyl-2-morpholinopropanamide]"
6,7 nM,"C[C@@H](C(=O)N(C)c1cc(C#N)c2[nH]c(-c3n[nH]c4c3C[C@@H]3C[C@]3(C)C4)nc2c1)N1CCOCC1 [Example 38, (S)—N-(7-cyano-2-((4aS,5aR)-5a-methyl-1,4,4a,5,5a,6-hexahydrocyclopropa[f]indazol-3-yl)-1H-benzo[d]imidazol-5-yl)-N-methyl-2-morpholinopropanamide]"
7,19 nM,"COc1cc(N(C)C(=O)[C@H](C)N2CCOCC2)cc2nc(-c3n[nH]c4c3C[C@@H]3C[C@]3(C)C4)[nH]c12 [Example 40, (S)—N-(7-methoxy-2-((4aS,5aR)-5a-methyl-1,4,4a,5,5a,6-hexahydrocyclopropa[f]indazol-3-yl)-1H-benzo[d]imidazol-5-yl)-N-methyl-2-morpholinopropanamide]"
8,34 nM,"C[C@@H](C(=O)N(C)c1cc(C(F)(F)F)c2[nH]c(-c3n[nH]c4c3C[C@@H]3C[C@]3(C)C4)nc2c1)N1CCOCC1 [Example 41, (S)—N-methyl-N-(2-((4aS,5aR)-5a-methyl-1,4,4a,5,5a,6-hexahydrocyclopropa[f]indazol-3-yl)-7-(trifluoromethyl)-1H-benzo[d]imidazol-5-yl)-2-morpholinopropanamide]"
9,38 nM,"COCc1cc(N(C)C(=O)[C@H](C)N2CCOCC2)cc2nc(-c3n[nH]c4c3C[C@@H]3C[C@]3(C)C4)[nH]c12 [Example 42, (S)—N-(7-(methoxymethyl)-2-((4aS,5aR)-5a-methyl-1,4,4a,5,5a,6-hexahydrocyclopropa[f]indazol-3-yl)-1H-benzo[d]imidazol-5-yl)-N-methyl-2-morpholinopropanamide]"
10,16 nM,"C[C@@H](C(=O)N(C)c1cc(Cl)c2[nH]c(-c3n[nH]c4c3C[C@@H]3C[C@]3(C)C4)nc2c1)N1CCOCC1 [Example 43, (S)—N-(7-chloro-2-((4aS,5aR)-5a-methyl-1,4,4a,5,5a,6-hexahydrocyclopropa[f]indazol-3-yl)-1H-benzo[d]imidazol-5-yl)-N-methyl-2-morpholinopropanamide]"
11,28 nM,"CCc1cc(N(C)C(=O)[C@H](C)N2CCOCC2)cc2nc(-c3n[nH]c4c3C[C@@H]3C[C@]3(C)C4)[nH]c12 [Example 44, (S)—N-(7-ethyl-2-((4aS,5aR)-5a-methyl-1,4,4a,5,5a,6-hexahydrocyclopropa[f]indazol-3-yl)-1H-benzo[d]imidazol-5-yl)-N-methyl-2-morpholinopropanamide]"
12,17 nM,"C[C@@H](C(=O)N(C)c1cc(CO)c2[nH]c(-c3n[nH]c4c3C[C@@H]3C[C@]3(C)C4)nc2c1)N1CCOCC1 [Example 45, (S)—N-(7-(hydroxymethyl)-2-((4aS,5aR)-5a-methyl-1,4,4a,5,5a,6-hexahydrocyclopropa[f]indazol-3-yl)-1H-benzo[d]imidazol-5-yl)-N-methyl-2-morpholinopropanamide]"
13,29 nM,"Cc1c(F)c(N(C)C(=O)[C@H](C)N2CCOCC2)cc2nc(-c3n[nH]c4c3C[C@@H]3C[C@]3(C)C4)[nH]c12 [Example 47, (S)—N-(6-fluoro-7-methyl-2-((4aS,5aR)-5a-methyl-1,4,4a,5,5a,6-hexahydrocyclopropa[f]indazol-3-yl)-1H-benzo[d]imidazol-5-yl)-N-methyl-2-morpholinopropanamide]"
14,17 nM,"C[C@@H](C(=O)N(C)c1cc(C(F)F)c2[nH]c(-c3n[nH]c4c3C[C@@H]3C[C@]3(C)C4)nc2c1)N1CCOCC1 [Example 48, (S)—N-(7-(difluoromethyl)-2-((4aS,5aR)-5a-methyl-1,4,4a,5,5a,6-hexahydrocyclopropa[f]indazol-3-yl)-1H-benzo[d]imidazol-5-yl)-N-methyl-2-morpholinopropanamide]"
15,12 nM,"COCCOc1cc2[nH]c(-c3n[nH]c4c3C[C@@H]3C[C@]3(C)C4)nc2cc1N(C)C(=O)[C@H](C)N1CCOCC1 [Example 49, (S)—N-(6-(2-methoxyethoxy)-2-((4aS,5aR)-5a-methyl-1,4,4a,5,5a,6-hexahydrocyclopropa[f]indazol-3-yl)-1H-benzo[d]imidazol-5-yl)-N-methyl-2-morpholinopropanamide]"
16,16 nM,"Cc1cc(N(C)C(=O)[C@H](C)N2CCOCC2)cc2nc(-c3n[nH]c4c3C[C@@H]3C[C@]3(C)C4)[nH]c12 [Example 50, (S)—N-methyl-N-(7-methyl-2-((4aS,5aR)-5a-methyl-1,4,4a,5,5a,6-hexahydrocyclopropa[f]indazol-3-yl)-1H-benzo[d]imidazol-5-yl)-2-morpholinopropanamide]"
17,2 nM,"Cc1cc(N(C)C(=O)[C@H](C)N2CCOCC2)cc2nc(-c3n[nH]c4c3C[C@@H]3C(F)(F)[C@]3(C)C4)[nH]c12 [Example 51, (S)—N-(2-((4aS,5aR)-5,5-difluoro-5a-methyl-1,4,4a,5,5a,6-hexahydrocyclopropa[f]indazol-3-yl)-7-methyl-1H-benzo[d]imidazol-5-yl)-N-methyl-2-morpholinopropanamide]"
18,121 nM,"Cc1cc2[nH]c(-c3n[nH]c4c3C[C@@H]3C[C@]3(C)C4)nc2cc1NC(=O)[C@H](C)N1CCOCC1 [Example 52, (S)—N-(6-methyl-2-((4aS,5aR)-5a-methyl-1,4,4a,5,5a,6-hexahydrocyclopropa[f]indazol-3-yl)-1H-benzo[d]imidazol-5-yl)-2-morpholinopropanamide]"
19,272 nM,"CN(C(=O)CC1CCOCC1)c1cc2nc(-c3n[nH]c4c3C[C@@H]3C[C@]3(C)C4)[nH]c2cc1C#N [Example 54, N-(6-cyano-2-((4aS,5aR)-5a-methyl-1,4,4a,5,5a,6-hexahydrocyclopropa[f]indazol-3-yl)-1H-benzo[d]imidazol-5-yl)-N-methyl-2-(tetrahydro-2H-pyran-4-yl)acetamide]"
20,5 nM,"C[C@@H](C(=O)N(C)c1cc(C#N)c2[nH]c(-c3n[nH]c4c3C[C@@H]3C[C@]3(C)C4)nc2c1)C1CCOCC1 [Example 55, (R)—N-(7-cyano-2-((4aS,5aR)-5a-methyl-1,4,4a,5,5a,6-hexahydrocyclopropa[f]indazol-3-yl)-1H-benzo[d]imidazol-5-yl)-N-methyl-2-(tetrahydro-2H-pyran-4-yl)propanamide]"
